We go through 19 compounds from patent US20090105124A1, “HETEROCYCLIC MODULATORS OF TGR5” (Kalypsys, Inc., priority 2007, published 2009).

The target of this experiment is T1, human TGR5 (Homo sapiens, UniProt Q8TDU6).
T1 construct: expressed in transfected cells
T1 sequence (Q8TDU6 1-330): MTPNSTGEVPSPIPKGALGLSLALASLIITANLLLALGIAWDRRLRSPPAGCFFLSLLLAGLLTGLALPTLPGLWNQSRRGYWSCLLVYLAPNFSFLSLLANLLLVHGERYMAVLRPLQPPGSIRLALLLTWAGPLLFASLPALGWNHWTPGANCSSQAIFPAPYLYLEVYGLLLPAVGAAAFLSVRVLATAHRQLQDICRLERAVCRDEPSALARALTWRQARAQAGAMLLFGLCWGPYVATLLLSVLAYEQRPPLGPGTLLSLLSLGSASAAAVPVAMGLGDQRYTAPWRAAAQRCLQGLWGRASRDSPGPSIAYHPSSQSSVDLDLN
As to the kind of experiment: cAMP production assay in HEK293 cells stably expressing TGR5 (LANCE cAMP, TR-FRET). It is filed as cell-based. As to conditions: stimulated with test compounds for 30 minutes, 1 mM IBMX, read-out: cAMP Production in 293-TGR5 Cells. The method, then: HEK293 cells stably expressing TGR5 (HEK293-TGR5) were established by stably transfecting HEK-293 cells with an expression vector (pcDNA 3.1, Invetrogen) inserted with human TGR5 cDNA using Fugene6 (Roche, Indianapolis, Ind.) according to conventional methods. Cells were grown in DMEM (invitrogen, Carlsbad, Calif.) supplemented with 10% FBS, 1% penicillin/streptomycin under geneticin selection. The presence of TGR5 transcripts in these cells was confirmed using branched DNA (bDNA, Genospectra, Inc., Fremont Calif.) following the manufacturer's protocol and using specific probes for human TGR5. cAMP production assay was performed in high throughput 1536 well format using LANCE cAMP detection kit (Perkin Elmer Inc., Boston, Mass.) according to the manufacturer's protocol. Briefly, HEK293-TGR5 cells were harvested using non-enzymatic cell dissociation buffer (Invitrogen, Carlsbad, Calif.) and suspended in DMEM supplemented with 0.1% FBS at a density of 800,000 cells/ml. Alexa antibody was added to the cell suspension, and 4 ul of the mixture was dispensed in white opaque tissue culture treated Greiner 1536 well plates (USA Scientific, Inc., Ocala, Fla.). After an overnight incubation at 37 C in an atmosphere of 10% CO2 and 95% humidity, 1 ul of 5 mM IBMX (Sigma, St. Louis, Mo.) solution in DMEM was dispensed for a final concentration of 1 mM. Cells were then stimulated with test compounds for 30 minutes, after which time 5 ul of detection reagent was added and incubated for 1-7 hrs at room temperature. TR-FRET signal was detected using the Viewlux (Perkin Elmer Inc., Boston Mass.). EC50 values were determined using Graph Pad Prizm analysis (GraphPad Software, Inc). The EC50 values for a wide range of bile acids generated from this assay were in agreement with the values published in the scientific literature. […] The symbol (+) denotes an EC50 value of ≦10 μM while the symbol (−) denotes an EC50 value of >10 μM (see Table 1).
On the technique in general: Changes in cAMP serve as a functional read-out for many G protein-coupled receptors.
On to `O=c1c2ccsc2nc(-c2ccc(F)cc2)n1NCc1ccc(Cl)c(Cl)c1` [Example 33, 3-{[(3,4-Dichlorophenyl)methyl]amino}-2-(4-fluorophenyl)-3H,4H-thieno[2,3-d]pyrimidin-4-one], for which the EC50 is at most 10 µM.
As for `COc1cncc(-c2nc3sccc3c(=O)n2NCc2ccc(Cl)cc2)c1` [Example 34, 3-{[(4-Chlorophenyl)methyl]amino}-2-(5-methoxypyridin-3-yl)-3H,4H-thieno[2,3-d]pyrimidin-4-one], the figure is at most 10 µM; as for `O=c1c2sccc2nc(-c2ccc(F)cc2)n1NCc1ccc(Br)cc1` [Example 35, 3-{[(4-Bromophenyl)methyl]amino}-2-(4-fluorophenyl)-3H,4H-thieno[3,2-d]pyrimidin-4-one], at most 10 µM; as for `O=c1c2sccc2nc(-c2ccc(F)cc2)n1NCc1ccc(Cl)c(Cl)c1` [Example 36, 3-{[(3,4-Dichlorophenyl)methyl]amino}-2-(4-fluorophenyl)-3H,4H-thieno[3,2-d]pyrimidin-4-one], at most 10 µM.
Consider `O=c1c2sccc2nc(-c2ccc(F)cc2)n1NCc1ccc(Cl)cc1` [Example 37, 3-{[(4-Chlorophenyl)methyl]amino}-2-(4-fluorophenyl)-3H,4H-thieno[3,2-d]pyrimidin-4-one], for which the EC50 is at most 10 µM.
For the compound `Cn1cnc2nc(-c3ccc(F)cc3)n(NCc3ccc(Br)cc3)c(=O)c21` [Example 38, 1-{[(4-Bromophenyl)methyl]amino}-2-(4-fluorophenyl)-7-methyl-6,7-dihydro-1H-purin-6-one], the EC50 was at most 10 µM.
With `Cn1cnc2nc(-c3ccc(F)cc3)n(NCc3ccc(Cl)cc3)c(=O)c21` [Example 39, 1-{[(4-Chlorophenyl)methyl]amino}-2-(4-fluorophenyl)-7-methyl-6,7-dihydro-1H-purin-6-one], the EC50 was at most 10 µM.
Turning to `Cn1ncc2nc(-c3ccc(F)cc3)n(NCc3ccc(Br)cc3)c(=O)c21` [Example 40, 6-{[(4-Bromophenyl)methyl]amino}-5-(4-fluorophenyl)-1-methyl-1H,6H,7H-pyrazolo[4,3-d]pyrimidin-7-one], the EC50 is at most 10 µM.
As for `Cn1ncc2nc(-c3ccc(F)cc3)n(NCc3ccc(Cl)cc3)c(=O)c21` [Example 41, 6-{[(4-Chlorophenyl)methyl]amino}-5-(4-fluorophenyl)-1-methyl-1H,6H,7H-pyrazolo[4,3-d]pyrimidin-7-one], the figure is at most 10 µM; as for `Cn1ncc2nc(-c3ccc(F)cc3)n(NCc3ccc(F)c(F)c3)c(=O)c21` [Example 42, 6-{[(3,4-Difluorophenyl)methyl]amino}-5-(4-fluorophenyl)-1-methyl-1H,6H,7H-pyrazolo[4,3-d]pyrimidin-7-one], above 10 µM.
With `O=c1c2nccnc2nc(-c2ccc(F)cc2)n1NCc1ccc(Cl)cc1` [Example 43, 3-{[(4-Chlorophenyl)methyl]amino}-2-(4-fluorophenyl)-3,4-dihydropteridin-4-one] the figure was at most 10 µM.
Take `N#Cc1ccc(CNn2c(-c3ccc(F)cc3)nc3nccnc3c2=O)cc1` [Example 44, 4-({[2-(4-Fluorophenyl)-4-oxo-3,4-dihydropteridin-3-yl]amino}methyl)benzonitrile]: the EC50 was at most 10 µM.
With `O=c1c2nccnc2nc(-c2ccc(F)cc2)n1NCc1ccc(Cl)c(F)c1` [Example 45, 3-{[(4-Chloro-3-fluorophenyl)methyl]amino}-2-(4-fluorophenyl)-3,4-dihydropteridin-4-one] the figure was at most 10 µM; with `O=c1c2nccnc2nc(-c2ccc(F)cc2)n1NCc1ccc(Cl)cc1F` [Example 46, 3-{[(4-Chloro-2-fluorophenyl)methyl]amino}-2-(4-fluorophenyl)-3,4-dihydropteridin-4-one], at most 10 µM.
With `Cc1cncc(-c2nc3nccnc3c(=O)n2NCc2ccc(Cl)cc2)c1` [Example 47, 3-{[(4-Chlorophenyl)methyl]amino}-2-(5-methylpyridin-3-yl)-3,4-dihydropteridin-4-one], the EC50 was at most 10 µM.
As for `Cc1cncc(-c2nc3nccnc3c(=O)n2NCc2ccc(C#N)cc2)c1` [Example 48, 4-({[2-(5-Methylpyridin-3-yl)-4-oxo-3,4-dihydropteridin-3-yl]amino}methyl)benzonitrile], the figure is at most 10 µM; as for `O=c1c2nccnc2nc(-c2cncc(Cl)c2)n1NCc1ccc(Cl)cc1` [Example 49, 3-{[(4-Chlorophenyl)methyl]amino}-2-(5-chloropyridin-3-yl)-3,4-dihydropteridin-4-one], at most 10 µM.
On to `O=c1c2nccnc2nc(-c2ccc(F)cc2)n1/N=C/c1ccc(Br)cc1` [Example 50, 3-[(E)-[(4-Bromophenyl)methylidene]amino]-2-(4-fluorophenyl)-3,4-dihydropteridin-4-one], for which the EC50 is above 10 µM.
Take `O=c1c2c(nc(-c3ccc(F)cc3)n1NCc1ccc(Br)cc1)CNCC2` [Example 51, 3-{[(4-Bromophenyl)methyl]amino}-2-(4-fluorophenyl)-3H,4H,5H,6H,7H,8H-pyrido[3,4-d]pyrimidin-4-one]: the EC50 is above 10 µM.
